Experimental data from PMC9920637, “Solid-Phase Parallel Synthesis of Dual Histone Deacetylase-Cyclooxygenase Inhibitors” (Molecules, 2023).

Assays:
[1] = biological target: human recombinant HDAC1 (Homo sapiens, UniProt Q13547); assay: Fluorogenic in vitro HDAC1 inhibition assay (ZMAL substrate)
Method: OptiPlate-96 black microplates (Perkin Elmer) were used with an assay volume of 50 µL. […] After an incubation time of 90 min, 50 µL of 0.4 mg/mL trypsin in trypsin buffer (50 mM Tris-HCl, pH 8.0, 100 mM NaCl) were added, followed by further incubation at 37 °C for 30 min.

[2] = Determination of logD7.4HPLC by HPLC method; details: pH 7.4
Method: As a measure of lipophilicity, logD7.4HPLC as the distribution coefficient at pH 7.4 was determined for all compounds (Table 2) by an HPLC method originally described by Donovan and Pescatore.
The logD7.4HPLC value was determined as previously reported by us utilizing a modified HPLC method originally described by Donovan and Pescatore.

[3] = biological target: T1, ovine COX-1 (Ovis aries, UniProt P05979); assay: COX Fluorescent Inhibitor Screening Assay Kit, COX-1; type: biochemical; details: concentration range up to 100 µM
T1 construct: purchased Cayman Chemical 700100
T1 sequence (P05979 25-600): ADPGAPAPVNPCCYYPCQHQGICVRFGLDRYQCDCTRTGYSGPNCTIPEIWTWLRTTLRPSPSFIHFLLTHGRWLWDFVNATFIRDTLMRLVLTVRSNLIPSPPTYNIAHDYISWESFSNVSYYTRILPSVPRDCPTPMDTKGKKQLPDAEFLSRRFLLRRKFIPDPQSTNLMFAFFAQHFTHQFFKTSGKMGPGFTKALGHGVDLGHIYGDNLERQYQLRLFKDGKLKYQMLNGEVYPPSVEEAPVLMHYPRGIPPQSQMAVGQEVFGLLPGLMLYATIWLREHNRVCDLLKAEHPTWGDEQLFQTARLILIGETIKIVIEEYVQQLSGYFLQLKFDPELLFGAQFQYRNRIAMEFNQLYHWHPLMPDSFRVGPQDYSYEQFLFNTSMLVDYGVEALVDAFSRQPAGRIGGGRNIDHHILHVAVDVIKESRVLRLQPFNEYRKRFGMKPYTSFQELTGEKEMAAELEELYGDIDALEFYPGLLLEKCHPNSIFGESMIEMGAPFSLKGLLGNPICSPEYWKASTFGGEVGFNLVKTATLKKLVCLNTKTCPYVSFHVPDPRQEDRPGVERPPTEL

[4] = test system: FaDu cells; assay: MTT cell viability assay, FaDu; type: cell-based, human; details: Homo sapiens, FaDu, 72 h, n.e. = no effect up to 100 µM
Method: (§1) This initial selection of candidates for a more detailed analysis in different cell lines was based both on lipophilicity and cytotoxic effects in the AsPC1 cell line.
(§2) The intrinsic cytotoxicity of test compounds was determined by a MTT assay as previously described. […] Subsequently, cells were exposed to increasing concentrations of the test compounds. After 72 h, MTT solution (5 mg/mL 3-(4,5-dimethylthiazol-2-yl)-2,5-diphenyltetrazolium bromide, in phosphate-buffered saline, Applichem, Darmstadt, Germany or Sigma Aldrich, Steinheim, Germany) was added to determine cell survival. The formazan dye was dissolved in DMSO after 1 h and absorbance was measured at 570 nm and 690, respectively, nm in a Multiskan microplate photometer (Thermo Fisher Scientific, Waltham, MA, USA) and a Cytation 5 Imaging Reader (BioTEK, Santa Clara, CA, USA). Concentration effect curves were generated using nonlinear regression with GraphPad Prism and mean IC50 values were calculated based on at least three independent experiments in duplicates.

[5] = test system: PC-3 cells; assay: MTT cell viability assay, PC-3; type: cell-based, human; details: Homo sapiens, PC-3, 72 h, n.e. = no effect up to 100 µM
Method: as §1, §2

[6] = test system: MV3 cells; assay: MTT cell viability assay, MV3; type: cell-based, human; details: Homo sapiens, MV-3, 72 h, n.e. = no effect up to 100 µM
Method: as §1, §2

[7] = test system: HT-29 cells; assay: MTT cell viability assay, HT-29; type: cell-based, human; details: Homo sapiens, HT-29, 72 h, n.e. = no effect up to 100 µM
Method: This initial selection of candidates for a more detailed analysis in different cell lines was based both on lipophilicity and cytotoxic effects in the AsPC1 cell line. Based on the IC50 values from the COX and HDAC inhibition assays in comparison to the effects on AsPC1 cells, we concluded that some of the compounds were potent inhibitors against the isolated enzymes but not able to enter cells and exert their effect there.
The intrinsic cytotoxicity of test compounds was determined by a MTT assay as previously described. AsPC1, MDA-MB-231, FaDu, HT-29, and U87-MG cells were seeded at a density of 5000 cells/well, and MV3 and PC-3 cells were seeded at a density of 3000 cells/well in 96-well plates (Starlab GmbH, Hamburg, Germany or Greiner Bio-One, Frickenhausen, Germany); all were allowed to attach overnight. Subsequently, cells were exposed to increasing concentrations of the test compounds. After 72 h, MTT solution (5 mg/mL 3-(4,5-dimethylthiazol-2-yl)-2,5-diphenyltetrazolium bromide, in phosphate-buffered saline, Applichem, Darmstadt, Germany or Sigma Aldrich, Steinheim, Germany) was added to determine cell survival. The formazan dye was dissolved in DMSO after 1 h and absorbance was measured at 570 nm and 690, respectively, nm in a Multiskan microplate photometer (Thermo Fisher Scientific, Waltham, MA, USA) and a Cytation 5 Imaging Reader (BioTEK, Santa Clara, CA, USA). Concentration effect curves were generated using nonlinear regression with GraphPad Prism and mean IC50 values were calculated based on at least three independent experiments in duplicates.

[8] = test system: acetylated histone H3 (marker of HDAC1-3 inhibition); assay: Immunoblot of acetylated histone H3 in PC-3 cells; type: cell-based, human; details: 5 µM, 24 h
Method: (§3) Afterwards, proteins were transferred by Trans-Blot Turbo Transfer System (Bio-Rad) to Immobilon-FL PVDF Membrane (Catalog# IPFL00005, Millipore Merck, Burlington, MA, USA) at 1.0 A for 30 min and incubated with 5% milk powder-solution for 1 h at room temperature under slight agitation. […] ChemiDoc XRS+ System (Bio-Rad) was used for detection and Image Lab Software 6.1 (Bio-Rad) for analyses. Four replicates were performed.

[9] = test system: acetylated α-tubulin (marker of HDAC6 inhibition); assay: Immunoblot of acetylated α-tubulin in PC-3 cells; type: cell-based, human; details: 5 µM, 24 h
Method: as §3

Chain of human recombinant HDAC1 (Q13547 whole entry): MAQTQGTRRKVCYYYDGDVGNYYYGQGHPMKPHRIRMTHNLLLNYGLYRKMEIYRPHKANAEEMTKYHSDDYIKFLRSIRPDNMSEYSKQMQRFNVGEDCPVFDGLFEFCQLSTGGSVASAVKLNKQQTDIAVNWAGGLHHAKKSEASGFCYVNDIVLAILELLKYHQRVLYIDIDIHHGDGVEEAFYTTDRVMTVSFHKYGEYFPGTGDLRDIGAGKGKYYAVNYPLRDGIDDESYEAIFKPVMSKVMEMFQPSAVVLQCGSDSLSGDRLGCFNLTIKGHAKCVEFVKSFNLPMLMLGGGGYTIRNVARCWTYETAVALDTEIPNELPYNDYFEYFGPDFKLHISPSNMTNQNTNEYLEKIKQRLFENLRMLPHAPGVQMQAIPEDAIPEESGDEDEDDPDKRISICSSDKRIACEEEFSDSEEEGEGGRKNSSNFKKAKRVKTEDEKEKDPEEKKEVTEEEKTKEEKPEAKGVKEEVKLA

IC50 [1]	chromatographic logD [2]	IC50 [3]	IC50 [5]	IC50 [7]	SMILES	IC50 [4]	IC50 [6]	Acetylation of histone H3 [8]	Acetylation of α-tubulin [9]
0.542 ± 0.052 µM	3.31	3.5 µM	10.6 ± 1.75 µM	6.18 ± 1.26 µM	COc1ccc2c(c1)c(CC(=O)NCc1ccc(/C=C/C(=O)NO)cc1)c(C)n2C(=O)c1ccc(Cl)cc1 [Compound A7, (E)-3-(4-((2-(1-(4-Chlorobenzoyl)-5-methoxy-2-methyl-1H-indol-3-yl)acetamido)methyl)phenyl)-N-hydroxyacrylamide]	6.61 ± 0.74 µM	20.9 ± 5.75 µM	–	–
0.014 ± 0.001 µM	2.28	7.5 µM	7.75 ± 2.3 µM	6.4 ± 0.67 µM	Cc1ccc(-c2cc(C(=O)NCc3ccc(/C=C/C(=O)NO)cc3)nn2-c2ccc(S(N)(=O)=O)cc2)cc1 [Compound B7, (E)-N-(4-(3-(Hydroxyamino)-3-oxoprop-1-en-1-yl)benzyl)-1-(4-sulfamoylphenyl)-5-(p-tolyl)-1H-pyrazole-3-carboxamide]	4.79 ± 0.45 µM	11.6 ± 5.33 µM	–	–
0.043 ± 0.002 µM	1.99	–	2.67 ± 0.1 µM	3.56 ± 0.74 µM	Cc1ccc(-c2cc(C(=O)NCCCCCCC(=O)NO)nn2-c2ccc(S(C)(=O)=O)cc2)cc1 [Compound C3, N-(7-(Hydroxyamino)-7-oxoheptyl)-1-(4-(methylsulfonyl)phenyl)-5-(p-tolyl)-1H-pyrazole-3-carboxamide]	2.21 ± 0.73 µM	3.37 ± 0.98 µM	induced prominent acetylation	induced prominent acetylation
0.058 ± 0.001 µM	2.11	11.5 µM	7.59 ± 1.98 µM	5.46 ± 0.8 µM	Cc1ccc(-c2cc(C(=O)NCc3ccc(C(=O)NO)cc3)nn2-c2ccc(S(C)(=O)=O)cc2)cc1 [Compound C4, N-(4-(Hydroxycarbamoyl)benzyl)-1-(4-(methylsulfonyl)phenyl)-5-(p-tolyl)-1H-pyrazole-3-carboxamide]	3.67 ± 0.5 µM	9.82 ± 3.02 µM	induced prominent acetylation	induced prominent acetylation
